Patent publication US20080057010A1, “METHOD FOR SKIN CARE” (NULIV SCIENCE LTD., priority 2006, published 2008)

Tests used:
collagen I = assay: Collagen I expression and secretion in human HDF cells (western blot); format: cell-based; conditions: relative to 0 = 1.00
Description: (§1) Primary human dermal fibroblasts cells (HDF) were purchased from Cascade Biologics (Portland, Oreg., USA) and cultured in medium 106 supplemented with 10% fetal bovine serum (FBS), 100 IU/mL penicillin, 100 μg/mL of streptomycin. The cells from passages 4 to 10 were used for this study. Culture medium was replaced every other day. After confluence, the cells were subcultured following trypsinization. For subcultures cells were harvested after brief treatment with 0.1% trypsin/EDTA solution and seeded at a dilution of 1:10. The cells were seeded at 1×10^5 cells in 6-well culture plate for 24 h before treated with astragalosides or crude extracts, such as butanol fraction and water insoluble fraction of Astragalus membranaceus for the indicated time periods. Control cultures were maintained in medium supplemented with vehicle (dimethyl sulfoxide, DMSO, 0.1%). No growth and differentiation effects of DMSO were observed under these culture conditions.
(§2) The cells were treated with pure compounds such as astragaloside I (AS 1), astragaloside II (AS2), astragaloside III (AS3), astragaloside IV (AS4), astragaloside VI (AS6), isoastragaloside I (isoAS1), isoastragaloside II (isoAS2), and cycloastragenol 6-O-β-D-glucopyranose (AA) at concentrations of 0-10 μM. Alternatively, the cells were also treated with the crude extracts, such as butanol fraction and water insoluble fraction of Astragalus membranaceus at concentrations of 0, 1, 10, and 40 μg/mL. The cells were treated with the indicated compounds or the extracts for 24 h before harvested for analysis of collagen I and III expressed in the whole cell extract or secreted into the culture medium.
(§3) Western blot analysis was carried out on both of cultured medium and cell lysates. The cells were plated on 6-cm dishes at a density of 1×10^6 cells/dish for 24 h prior to treatment with indicated concentrations of astragalus triterpenoids as indicated for another 48 h. The conditioned culture mediums were then centrifuged, 2-fold concentrated and collected for assay of collagens and MMPs secreted into the culture medium. The cells were washed and lysed in 0.2 mL of lysis buffer (1% NP-40, 50 mM Tris-HCl, pH 7.4, 180 mM NaCl, 1 mM EDTA, 1 mM PMSF, 1 mM NaF, 10 mM Na3VO4) for 30 min at 4° C. After centrifuging at 17500 g for 15 min, the supernatants of cell lysate were also collected. Protein concentration of the samples were measured using the bicinchoninic acid (BCA) protein assay kit according to the manufacturer's protocol (Pierce, Rockford, Ill., USA). Equal amount of protein samples of concentrated conditioned medium (100 μg) or cell lysate supernatants (50 μg) were mixed with an appropriate volume of 4×SDS sampling buffer and separated by 8% SDS-PAGE gel. The protein bands separated in the SDS-PAGE gel were blotted onto a polyvinylidene fluoride (PVDF) membrane. The blotted PVDF membrane was washed twice and blocked in freshly prepared Tris-buffered saline (TBS) containing 0.1% Tween-20 and 7% skim milk (TBST) for 2 h at room temperature. The PVDF membrane was then incubated with either antibodies against collagen I and III or the housekeeping protein α-tubulin (Santa Cruz Biotechnology, Santa Cruz, Calif.) for 18 h at 4° C. Horseradish peroxidase-conjugated anti-goat antibody was used as secondary antibody. Signals were visualized by an enhanced chemiluminescence kit (Clonetech, Palo Alto, Calif., USA) followed by exposure to X-ray films.
The collagen expression in the human HDF cells was also determined. […] And Collage I was over-expressed in the cells treated with various doses (1, 10, 40 μg/mL) of the crude extracts, such as butanol fraction and water insoluble fraction of Astragalus membranaceus.

collagen III = assay: Collagen III expression and secretion in human HDF cells (western blot); format: cell-based; conditions: relative to 0 = 1.00
Description: as §1, §2, §3

Compound | Collagen I in cell (collagen I; 0.01 μM) | Collagen I in medium (collagen I; 0.01 μM) | Collagen I in cell (collagen I; 0.1 μM) | Collagen I in medium (collagen I; 0.1 μM) | Collagen I in cell (collagen I; 1 μM) | Collagen I in medium (collagen I; 1 μM) | Collagen III in medium (collagen III; 0.01 μM) | Collagen III in medium (collagen III; 0.1 μM) | Collagen III in medium (collagen III; 1 μM) | Collagen III in cell (collagen III; 0.01 μM) | Collagen III in cell (collagen III; 0.1 μM) | Collagen III in cell (collagen III; 1 μM)
CC(=O)O[C@H]1[C@H](O[C@H]2CC[C@]34C[C@]35CC[C@]3(C)[C@@H]([C@@]6(C)CC[C@@H](C(C)(C)O)O6)[C@@H](O)C[C@@]3(C)[C@@H]5C[C@H](O[C@@H]3O[C@H](CO)[C@@H](O)[C@H](O)[C@H]3O)[C@H]4C2(C)C)OC[C@@H](O)[C@@H]1O [AS2, astragaloside II] | 1.02 | 1.24 | 0.73 | 1.15 | 1.26 | 1.02 | 1.26 | 1.74 | 0.94 | – | – | –
CC(C)(O)[C@@H]1CC[C@](C)([C@H]2[C@@H](O)C[C@@]3(C)[C@@H]4C[C@H](O)[C@H]5C(C)(C)[C@@H](O[C@@H]6OC[C@@H](O)[C@H](O)[C@H]6O[C@@H]6O[C@H](CO)[C@@H](O)[C@H](O)[C@H]6O)CC[C@@]56C[C@@]46CC[C@]23C)O1 [AS3, astragaloside III] | – | – | – | – | – | – | 2.18 | 1.79 | 1.51 | – | – | –
CC(C)(O)[C@@H]1CC[C@](C)([C@H]2[C@@H](O)C[C@@]3(C)[C@@H]4C[C@H](O[C@@H]5O[C@H](CO)[C@@H](O)[C@H](O)[C@H]5O)[C@H]5C(C)(C)[C@@H](O[C@@H]6OC[C@@H](O)[C@H](O)[C@H]6O)CC[C@@]56C[C@@]46CC[C@]23C)O1 [AS4, astragaloside IV] | 1.16 | 1.24 | 1.33 | 1.11 | 1.07 | 1.11 | – | – | – | – | – | –
CC(C)(O)[C@@H]1CC[C@](C)([C@H]2[C@@H](O)C[C@@]3(C)[C@@H]4C[C@H](O[C@@H]5O[C@H](CO)[C@@H](O)[C@H](O)[C@H]5O)[C@H]5C(C)(C)[C@@H](O[C@@H]6OC[C@@H](O)[C@H](O)[C@H]6O[C@@H]6O[C@H](CO)[C@@H](O)[C@H](O)[C@H]6O)CC[C@@]56C[C@@]46CC[C@]23C)O1 [AS6, astragaloside VI] | 1.18 | 1.19 | 1.41 | 1.29 | 1.30 | 1.25 | – | – | – | 1.65 | 1.37 | 0.95
CC(=O)O[C@H]1[C@H](O[C@H]2CC[C@]34C[C@]35CC[C@]3(C)[C@@H]([C@@]6(C)CC[C@@H](C(C)(C)O)O6)[C@@H](O)C[C@@]3(C)[C@@H]5C[C@H](O[C@@H]3O[C@H](CO)[C@@H](O)[C@H](O)[C@H]3O)[C@H]4C2(C)C)OC[C@@H](OC(C)=O)[C@@H]1O [isoAS1, isoastragaloside I] | 0.71 | 1.20 | 1.11 | 1.08 | 1.27 | 0.96 | – | – | – | – | – | –
CC(=O)O[C@@H]1[C@@H](O)[C@H](O[C@H]2CC[C@]34C[C@]35CC[C@]3(C)[C@@H]([C@@]6(C)CC[C@@H](C(C)(C)O)O6)[C@@H](O)C[C@@]3(C)[C@@H]5C[C@H](O[C@@H]3O[C@H](CO)[C@@H](O)[C@H](O)[C@H]3O)[C@H]4C2(C)C)OC[C@H]1O [isoAS2, isoastragaloside II] | – | – | – | – | – | – | 1.00 | 1.07 | 1.18 | – | – | –
astragaloside I [AS1] | – | – | – | – | – | – | 1.38 | 1.19 | 1.77 | 1.16 | 1.08 | 1.18
